{
  "source": "patent US20220002674A1",
  "about": "“T CELLS WITH SUICIDE SWITCH” (priority 2018, published 2022)",
  "key": {"AOS-1 T cells": {"tested_on": "AOS-1 T cells", "test": "4-hour apoptosis assay with 10 nM rimiducid on AOS-1 T cells sorted by CD19 intensity", "assay_type": "cell-based, human", "conditions": "for CD19+ specific killing: low-CD19 sorted cells; for median killing efficacy: 10 nM, 4 hours", "experimental": "To measure apoptosis 5×10^5 cells were plated per 48-well, and rimiducid was added at a concentration of 10 nM in a 4-hour assay. Phenotyping and functional assays (e.g., apoptosis) were performed by flow cytometry, qPCR and Western blot before and after T cell reactivation using anti-CD3/anti-CD28 antibodies. The phenotype of the cells was determined by staining cells for flow cytometry analysis with anti-CD3, anti-CD4, anti-CD8, anti-CD19, anti-CD45RA, anti-CD45RO, and anti-CCR7 antibodies. Terminal effector memory cells are defined as CD45RA^+CD45RO^−CCR7^−. T effector memory cells are defined as CD45RA^−CD45RO^+CCR7^−. T central memory cells are defined as CD45RA^−CD45RO^+CCR7^+. Naïve T cells are defined as CD45RA^+CD45RO^−CCR7^+. Diversity of the T cell receptor repertoire was assessed by flow cytometry."}, "EGFPluc+ iC9-T cells": {"tested_on": "EGFPluc+ iC9-T cells", "test": "T cell bioluminescence (IVIS) in NSG mice after rimiducid", "assay_type": "in vivo", "experimental": "(§1) In vivo studies were performed by i.v. injection of control or gene-modified T cells co-expressing luciferase into NSG mice. 1×10^7 EGFPluc+ iC9-T cells were infused into NSG mice. T cell bioluminescence was measured at 2 and 24 hours after infusion, followed by i.p. injection of a titrated dose of rimiducid or placebo (control drug). The animals were administered either control drug (temsirolimus; 1 mg/kg), rimiducid (0.001-1 mg/kg), or vehicle. Remaining T cell bioluminescence was measured at 6, 24 and 48 hours after drug administration. Bioluminescent imaging and flow cytometry were performed to assess in vivo depletion following iC9 activation.\nThe maximal elimination effect in the kill switch induced by rimiducid was reached 24 hours post drug administration. The values for average radiance were normalized to the initial radiance in each mouse using the formula: D Average radiance=100*[Timepoint “X” radiance]/[Timepoint “0” radiance]. Error bars represents S.E.M. Two-way ANOVA test was used to assess statistical significance of differences in T cell radiance between multiple groups at different time points."}, "[1]": {"tested_on": "CD3+CD19+ cells (iC9+ T cells)", "test": "flow cytometric analysis of cells harvested from spleens 48 h post drug treatment", "assay_type": "in vivo, NSG mice", "conditions": "for reduction of CD3+CD19+ cells in spleen: 48 h, compared to vehicle", "experimental": "as §1\nFIG. 18 depicts a flow cytometric analysis of cells harvested from spleens 48 h post drug treatment."}, "CD3+CD19+ T cells": {"tested_on": "CD3+CD19+ T cells", "test": "rimiducid treatment of patients engrafted with AOS-1 to control GvHD", "assay_type": "in vivo, human", "experimental": "Engraftment and persistence of the donor modified T cells were measured by co-expression of CD3 and CD19 by flow cytometry. Endogenous and gene-modified T cells were also phenotyped for CD4:CD8 ratios, memory cell composition (TN, TCM, TEM, TEMRA; CD45RA and CD62L) and T cell receptor Vβ diversity."}, "[2]": {"tested_on": "WT1, PRAME, MAGE, NE and PR3", "test": "IFN-γ ELIspot for LAA-specific T cells against peptide pools", "assay_type": "cell-based, human", "conditions": "10 nM rimiducid", "experimental": "PBMCs were mixed with pre-warmed (37° C.) cell culture media and centrifuged cells at […] for 10′ at 4° C. Cells were resuspended and counted using Cellometer. Cells were then centrifuged again at 1200 rpm for 10′. The cells were then resuspended in culture media at a concentration of 1×10^6/mL and 100 μL were added per well. 100 μL of 2X peptide stock or PHA were added to the desired wells. The plates were mixed gently for 2′. The plates were transferred to a 37° C. incubator with 5% CO2 and incubated for 18-24 hours. 100 μL capture anti-IFNγ antibody was added to each PBS-pre wetted well. The plates were then incubated at 4±3° C. overnight. After incubation the plates were washed 3 times with 200 μL D-PBS. Unbound sites were blocked with 100 μL D-PBS containing 10% culture media for 120+15 minutes at room temperature in a BSC. The plates were then washed 3 times with 200 μL D-PBS. 200 μL D-PBS were added into the wells. The plates were left at room temperature until the cells are ready. When cells were ready plates were removed from the incubator and the wells rinsed 2 times with tap water. The plates were then washed 5 times with D-PBS, containing 0.05% Tween 20. The wells and well bottoms were rinsed with distilled water. […] Plates were left to dry at room temperature before reading on an ELISpot reader."}, "AOS-1 cells": {"tested_on": "AOS-1 cells", "test": "speed of elimination of low-, medium- and high-CD19 populations in mice after rimiducid (FIG. 27)", "assay_type": "in vivo", "conditions": "5 mg/kg rimiducid on day 0, 1.5×10^7 AOS-1 cells on day −1", "excerpt": "Figures are means from 40 mice.\nFurther experiments looked at the speed of elimination of low-CD19, medium-CD19 and high-CD19 populations after administration of rimiducid."}, "[3]": {"tested_on": "genetically-modified T cells", "test": "rimiducid dose that eliminates infused genetically-modified T cells", "assay_type": "in vivo", "conditions": "cells infused at 1.5×10^7 cells/kg"}, "[4]": {"conditions": "human, in vivo; cited from earlier work"}},
  "data": [
    {"compound": "CC[C@H](C(=O)N1CCCC[C@H]1C(=O)O[C@H](CCc1ccc(OC)c(OC)c1)c1cccc(OCC(=O)NCCNC(=O)COc2cccc([C@@H](CCc3ccc(OC)c(OC)c3)OC(=O)[C@@H]3CCCCN3C(=O)[C@@H](CC)c3cc(OC)c(OC)c(OC)c3)c2)c1)c1cc(OC)c(OC)c(OC)c1", "note": "(relative stereo) [rimiducid, 2-Piperidinecarboxylic acid, 1-[(2S)-1-oxo-2-(3,4,5-trimethoxyphenyl)butyl]-, 1,2-ethanediylbis[imino(2-oxo-2,1-ethanediyl)oxy-3,1-phenylene[(1R)-3-(3,4-dimethoxyphenyl)propylidene]] ester, [2S-[1(R*),2R*[S*[S*[1(R*),2R*]]]]]-(9CI)]", "values": [
      {"measurement": "apoptosis", "setting": "AOS-1 T cells; all fractions after reactivation with anti-CD3/anti-CD28", "value": "over 90%"},
      {"measurement": "cells gone through apoptosis", "setting": "AOS-1 T cells; high MFI of CD19 cells, 10 nM rimiducid, within 4 hours", "value": "more than 95%"},
      {"measurement": "CD19+ specific killing", "setting": "AOS-1 T cells; after activation in vitro", "value": 97, "unit": "%"},
      {"measurement": "CD19+ specific killing", "setting": "AOS-1 T cells; before activation", "value": 46, "unit": "%"},
      {"measurement": "median killing efficacy", "setting": "AOS-1 T cells; sorted high CD19 cells", "value": 92, "unit": "%"},
      {"measurement": "median killing efficacy", "setting": "AOS-1 T cells; sorted low CD19 cells", "value": 69, "unit": "%"},
      {"measurement": "median killing efficacy", "setting": "AOS-1 T cells; sorted medium CD19 cells", "value": 87, "unit": "%"},
      {"measurement": "killing", "setting": "AOS-1 T cells; unstimulated high iC9-ΔCD19 cells", "value": 86, "unit": "%"},
      {"measurement": "killing", "setting": "AOS-1 T cells; unstimulated low iC9-ΔCD19 cells", "value": 50, "unit": "%"},
      {"measurement": "killing", "setting": "AOS-1 T cells; unstimulated medium iC9-ΔCD19 cells", "value": 76, "unit": "%"},
      {"measurement": "reduction of relative total flux", "setting": "EGFPluc+ iC9-T cells; 0.01 mg/kg i.p., 6-hour", "value": 82.5, "unit": "%"},
      {"measurement": "reduction of relative total flux", "setting": "EGFPluc+ iC9-T cells; 0.01 mg/kg i.p., 24-hour", "value": 90.5, "unit": "%"},
      {"measurement": "reduction of relative total flux", "setting": "EGFPluc+ iC9-T cells; 0.01 mg/kg i.p., 48-hour", "value": 90.5, "unit": "%"},
      {"measurement": "reduction of relative total flux", "setting": "EGFPluc+ iC9-T cells; 0.1 mg/kg i.p., 6-hour", "value": 92.5, "unit": "%"},
      {"measurement": "reduction of relative total flux", "setting": "EGFPluc+ iC9-T cells; 0.1 mg/kg i.p., 24-hour", "value": 95.5, "unit": "%"},
      {"measurement": "reduction of relative total flux", "setting": "EGFPluc+ iC9-T cells; 0.1 mg/kg i.p., 48-hour", "value": 95.3, "unit": "%"},
      {"measurement": "reduction of relative total flux", "setting": "EGFPluc+ iC9-T cells; 1 mg/kg i.p., 6-hour", "value": 96, "unit": "%"},
      {"measurement": "reduction of relative total flux", "setting": "EGFPluc+ iC9-T cells; 1 mg/kg i.p., 24-hour", "value": 98.1, "unit": "%"},
      {"measurement": "reduction of relative total flux", "setting": "EGFPluc+ iC9-T cells; 1 mg/kg i.p., 48-hour", "value": 98.1, "unit": "%"},
      {"measurement": "time at which maximal elimination effect was reached", "setting": "EGFPluc+ iC9-T cells; post drug administration", "value": 24, "unit": "h"},
      {"measurement": "reduction of CD3+CD19+ cells in spleen", "setting": "[1]; 0.01 mg/kg", "value": 99.6, "unit": "%"},
      {"measurement": "reduction of CD3+CD19+ cells in spleen", "setting": "[1]; 0.1 mg/kg", "value": 98.6, "unit": "%"},
      {"measurement": "reduction of CD3+CD19+ cells in spleen", "setting": "[1]; 1 mg/kg", "value": 89.6, "unit": "%"},
      {"measurement": "MFI of CD19 in CD3+CD19+ cells", "setting": "[1]; treated groups, down to 0.001 mg/kg", "value": "dose dependent decrease"},
      {"measurement": "course of CD3+CD19+ T cells and GvHD after rimiducid", "setting": "CD3+CD19+ T cells; patients treated with rimiducid", "value": "recovered without further instances of GvHD"},
      {"measurement": "decrease of CD3+CD19+ T cells in the peripheral blood", "setting": "CD3+CD19+ T cells; three patients with GvHD", "value": "62±12", "unit": "%"},
      {"measurement": "LAA-reactivity on exposure to rimiducid", "setting": "[2]", "value": "greatly diminished"},
      {"measurement": "elimination of CD19-high cells", "setting": "AOS-1 cells", "value": "eliminated within half an hour"},
      {"measurement": "elimination of CD19-low cells", "setting": "AOS-1 cells", "value": "declined more slowly"},
      {"measurement": "elimination of CD19-medium cells", "setting": "AOS-1 cells", "value": "fell to near-zero within an hour"},
      {"measurement": "dose that can eliminate cells", "setting": "[3]", "value": 0.4, "unit": "mg/kg"},
      {"measurement": "safety in healthy volunteers", "setting": "[4]", "value": "proven safe in healthy volunteers"}
    ]}
  ]
}
